Calls of active or inactive are those of the source. The calls are words filed in the database; no cut-off is given here.
Legend:
[1] = biological target: Delta-type opioid receptor (Rattus norvegicus, UniProt P33533); assay: Displacement of [3H]-DPDPE from rat cortical membrane DOR assessed as inhibition constant incubated for 2.5 hrs by Wallac Betaplate liquid scintillation counting analysis; type: cell membranes, Cortex
Mu-type opioid receptor = Mu-type opioid receptor (Rattus norvegicus, UniProt P33535); assay: Displacement of [3H]-DAMGO from rat cortical membrane MOR assessed as inhibition constant incubated for 2 hrs by Wallac Betaplate liquid scintillation counting analysis; type: cell membranes, Cortex
[2] = biological target: Kappa-type opioid receptor (Cavia porcellus, UniProt P41144); assay: Displacement of [3H]U69593 from guinea pig KOR assessed as inhibition constant incubated for 2 hrs by Wallac Betaplate liquid scintillation counting analysis
Mus musculus [3] = assay: Antinociceptive activity in male C57BL/6J mouse assessed as peripheral restriction at 15 mg/kg, ip pre-treated with naloxone methiodide at 30 mg/kg, SC for 30 min by 55 degreeC warm-water tail-withdrawal assay; type: functional
[4] = Toxicity in C57BL/6J mouse assessed as effect on locomotor activity at 15 mg/kg, ip measured up to 120 min; type: organism-based; details: in vivo, 2 h
[5] = Toxicity in C57BL/6J mouse assessed as respiratory depression at 15 mg/kg, ip measured after 20 mins; type: organism-based; details: in vivo
[6] = biological target: Mu-type opioid receptor (Rattus norvegicus) (UniProt P33535); assay: Partial agonist activity at rat MOR extracted from CHO cell membrane assessed as stimulation of [35S]GTPgammaS binding at 1 to 10 uM incubated for 60 mins by liquid scintillation counting assay; type: functional, cell membranes; details: dose 1-10 µM
Mus musculus [7] = species: Mus musculus; assay: Antinociceptive activity in male C57BL/6J mouse measured after 10 min by 55 degreeC warm-water tail-withdrawal assay; type: functional
Mus musculus [8] = assay: Antinociceptive activity in male C57BL/6J mouse at 10 nmol, ICV administered for 8 hrs by 55 degreeC warm-water tail-withdrawal assay; type: functional, organism-based
Mus musculus [9] = assay: Antinociceptive activity in KOR knockout male C57BL/6J mouse model at 10 nmol, ICV administered for 10 mins by 55 degreeC warm-water tail-withdrawal assay; type: functional, organism-based
Mus musculus [10] = assay: Antinociceptive activity in male C57BL/6J mouse assessed as peripheral restriction at 15 mg/kg, ip by 55 degreeC warm-water tail-withdrawal assay; type: functional
Mus musculus [11] = assay: Antinociceptive activity in MOR knockout male C57BL/6J mouse model at 10 nmol, ICV administered for 10 mins by 55 degreeC warm-water tail-withdrawal assay; type: functional, organism-based
Mus musculus [12] = assay: Antinociceptive activity in male C57BL/6J mouse preadministered with compound for 10 mins followed by acetic acid administration and measured after 15 to 30 min by Acetic acid stretching assay (AcAS); type: functional; details: time 25-40 min
[13] = biological target: Delta-type opioid receptor (Mus musculus) (UniProt P32300); assay: Partial agonist activity at mouse DOR extracted from CHO cell membrane assessed as stimulation of [35S]GTPgammaS binding at 1 to 10 uM incubated for 60 mins by liquid scintillation counting assay; type: functional, cell membranes; details: filed as partial agonist, dose 1-10 µM
Mus musculus [14] = assay: Antinociceptive activity in male C57BL/6J mouse assessed as peripheral restriction at 15 mg/kg, ip pre-treated with naloxone methiodide at 30 nmol, ICV for 30 min by 55 degreeC warm-water tail-withdrawal assay; type: functional
Mus musculus [15] = assay: Antinociceptive activity in wild type male C57BL/6J mouse model at 10 nmol, ICV preadministered with naltrindole for 20 mins followed by compound administration for 10 mins; type: functional, organism-based
[16] = Toxicity in C57BL/6J mouse assessed as increase in ambulation at 15 mg/kg, ip measured up to 120 min; type: organism-based; details: in vivo, 2 h
Mus musculus [17] = assay: Antinociceptive activity in male C57BL/6J mouse at 15 mg/kg, po by 55 degreeC warm-water tail-withdrawal assay; type: functional, organism-based; details: time <= 60.0 min
[18] = Selectivity ratio of ED50 for antinociceptive activity in male C57BL/6J mouse at 10 mg/kg, ip measured after 10 min by 55 degreeC warm-water tail-withdrawal assay to ED50 for antinociceptive activity in male C57BL/6J mouse preadministered with compound for 10 mins followed by acetic acid administration and measured after 15 to 30 min by Acetic acid stretching assay (AcAS); type: functional
Mus musculus [19] = species: Mus musculus; assay: Acute antinociceptive activity in male C57BL/6J mouse measured after 30 min by 55 degreeC warm-water tail-withdrawal assay; details: 0.5 h

Mu-type opioid receptor, sequence (P33535 whole entry): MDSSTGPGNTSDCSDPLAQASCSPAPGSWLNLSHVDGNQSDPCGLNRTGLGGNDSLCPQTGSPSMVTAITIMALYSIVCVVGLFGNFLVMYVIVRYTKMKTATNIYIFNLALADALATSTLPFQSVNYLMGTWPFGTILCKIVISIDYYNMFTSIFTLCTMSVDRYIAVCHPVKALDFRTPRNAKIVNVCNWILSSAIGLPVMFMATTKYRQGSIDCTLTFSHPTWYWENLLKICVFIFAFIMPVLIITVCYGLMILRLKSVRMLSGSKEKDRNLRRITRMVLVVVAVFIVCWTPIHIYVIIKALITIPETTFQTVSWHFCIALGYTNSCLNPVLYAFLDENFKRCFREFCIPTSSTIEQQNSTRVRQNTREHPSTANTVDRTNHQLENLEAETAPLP
Delta-type opioid receptor, sequence (P33533 whole entry): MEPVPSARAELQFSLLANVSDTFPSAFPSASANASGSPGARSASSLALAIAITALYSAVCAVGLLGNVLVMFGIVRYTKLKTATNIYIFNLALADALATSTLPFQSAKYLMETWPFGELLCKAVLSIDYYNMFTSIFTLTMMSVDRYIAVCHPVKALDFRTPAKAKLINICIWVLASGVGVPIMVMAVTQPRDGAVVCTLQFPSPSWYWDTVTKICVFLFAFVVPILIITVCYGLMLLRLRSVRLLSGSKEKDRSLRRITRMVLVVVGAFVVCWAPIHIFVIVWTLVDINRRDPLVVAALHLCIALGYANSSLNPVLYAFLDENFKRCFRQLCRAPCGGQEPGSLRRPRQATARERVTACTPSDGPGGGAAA
Kappa-type opioid receptor, sequence (P41144 whole entry): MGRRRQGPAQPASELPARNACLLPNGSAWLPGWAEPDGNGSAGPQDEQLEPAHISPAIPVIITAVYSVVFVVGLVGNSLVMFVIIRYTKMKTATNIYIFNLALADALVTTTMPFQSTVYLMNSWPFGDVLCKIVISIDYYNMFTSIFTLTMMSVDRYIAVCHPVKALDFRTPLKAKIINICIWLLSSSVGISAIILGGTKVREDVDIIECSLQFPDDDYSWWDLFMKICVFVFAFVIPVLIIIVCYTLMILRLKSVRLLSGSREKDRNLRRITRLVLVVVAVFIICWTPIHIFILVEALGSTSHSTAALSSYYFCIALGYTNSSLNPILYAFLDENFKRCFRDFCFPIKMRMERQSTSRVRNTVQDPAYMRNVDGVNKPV
Delta-type opioid receptor (Mus musculus), sequence (P32300 whole entry): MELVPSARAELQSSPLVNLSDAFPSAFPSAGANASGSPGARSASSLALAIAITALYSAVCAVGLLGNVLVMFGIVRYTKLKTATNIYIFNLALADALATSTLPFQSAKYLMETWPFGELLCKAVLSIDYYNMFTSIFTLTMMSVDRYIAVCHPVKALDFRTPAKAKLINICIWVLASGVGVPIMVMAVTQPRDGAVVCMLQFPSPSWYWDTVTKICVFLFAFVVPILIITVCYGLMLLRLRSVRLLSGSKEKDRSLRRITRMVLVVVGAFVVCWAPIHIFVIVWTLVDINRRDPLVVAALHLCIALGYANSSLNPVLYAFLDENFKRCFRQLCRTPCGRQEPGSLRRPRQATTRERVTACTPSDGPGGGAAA
Mu-type opioid receptor (Rattus norvegicus), sequence (P33535 whole entry): as the sequence (P33535 whole entry) above

SMILES	Ki [1]	Ki (Mu-type opioid receptor)	Ki [2]	also measured
CC(C)[C@H]1CN=C2C=C3N(CCc4ccccc4)[C@@H](CN(C)C)CN3[C@@H](Cc3ccc(O)cc3)CN21	4 nM	26 nM	37 nM	
CC(C)C[C@H]1CN([C@@H](Cc2ccc(O)cc2)CN2C(=N)NC[C@@H]2CCCNC(=N)N)C(=N)N1CCNS(=O)(=O)c1ccc(C(C)(C)C)cc1	1 nM	120 nM	48 nM	
CC(C)C[C@H]1CN2C(=CC3=NC[C@H](CC(C)C)N3C[C@@H]2Cc2ccc(O)cc2)N1CCN1CCOCC1	16 nM	157 nM	15 nM	
CC(C)[C@H]1CN=C2C=C3N4C[C@H](O)C[C@H]4CN3[C@@H](Cc3ccc(O)cc3)CN21	34 nM	254 nM	16 nM	
CC(C)C[C@H]1CN2C(=CC3=NC[C@H](CCN(C)C)N3C[C@@H]2Cc2ccc(O)cc2)N1CCc1ccccc1	5 nM	212 nM	24 nM	Activity (Mus musculus [3]): 1.2%; Activity [4]: Non-toxic; Activity [5]: Non-toxic; Activity [6]: Not active; No Significant Activity; ED50 (Mus musculus [7]): 2.19 mg/kg; Activity (Mus musculus [8]): Active; Comparable To Morphine And U50,488; Activity (Mus musculus [9]): inactive; Activity (Mus musculus [10]): 96.3%; Activity (Mus musculus [11]): inactive; ED50 (Mus musculus [12]): 0.2 mg/kg; Activity [13]: Active; Weak Partial Agonism Observed; Activity (Mus musculus [14]): 42%; Activity (Mus musculus [15]): inactive; Activity [16]: Non-toxic; Activity (Mus musculus [17]): Time-dependent-effect; Ratio ED50 [18]: 10.73
CC(C)(C)c1ccc(S(=O)(=O)NCCN2C(=N)N([C@@H](CCCNC(=N)N)CN3C(=N)NC[C@@H]3CCCNC(=N)N)C[C@@H]2CCCNC(=N)N)cc1	7 nM	340 nM	93 nM	
CN1CC[C@]23c4c5ccc(O)c4O[C@H]2[C@@H](O)C=C[C@H]3[C@H]1C5 [MORPHINE]				ED50 (Mus musculus [12]): 0.9 mg/kg; ED50 (Mus musculus [19]): 3.37 mg/kg; Ratio ED50 [18]: 3.75
CC(C)(C)c1ccc(S(=O)(=O)NCCN2C(=N)N([C@@H](Cc3ccc(O)cc3)CN3C(=N)NC[C@@H]3CCCNC(=N)N)C[C@@H]2CCCNC(=N)N)cc1	84 nM	458 nM	49 nM	

Reference: ChEMBL document CHEMBL6109116, “Peripherally Restricted Fused Heterocyclic Peptidomimetic Multifunctional Opioid Agonists as Novel, Potent Analgesics” (ACS Med Chem Lett, 2025)
